Literature values, collected in US20100331966A1, “BIOCORRODIBLE IMPLANT HAVING AN ACTIVE COATING” (priority 2009, published 2010).

Tested on: hyperlipidemic rabbits
[1] = hyperlipidemic rabbits, repeated administration

Substance	plaque-loosening effect (rabbit, in vivo)	atheromatous vascular plaque [1]	blood cholesterol [1]	fibrin content [1]	heparin content in the plasma [1]	vascular permeability in the tissue [1]
hyaluronate lyase [bacteria hyaluronate lyase]	confirmed	–	–	–	–	–
hyaluronidase	–	significant decrease	lowering	lowering	increase	increased
